Laboratory results published in patent publication US20020183340A1, “4-(4'-HYDROXYPHENYL) AMINO-6,7-DIMETHOXYQUINAZOLINE TO PREVENT DEVELOPMENT OF COLORECTAL CANCER” (Parker Hughes Institute, priority 1999, published 2002).

Test system: APC^min mouse model
Test: APC^min mouse model of colorectal cancer development (chow supplemented with compound)
Assay type: in vivo, mice
Conditions: for Probability Of Survival: APC^min mice fed chow with 0.3 wt % compound once a week from six weeks of age, n = 23
Excerpt: An APC^min mouse model was used to test the ability of 4-(4′-hydroxyphenyl)-amino-6,7-dimethoxyquinazoline to prevent the development of colorectal cancer. A total of 23 APC^min mice were fed rodent chow, which was supplemented with 0.3 wt % 4-(4′-hydroxyphenyl)-amino-6,7-dimethoxyquinazoline once a week starting at six weeks of age. A control group of 30 mice were fed rodent chow without 4-(4′-hydroxyphenyl)-amino-6,7-dimethoxyquinazoline. The health status of the mice was monitored for thirty weeks. Table 1 below describes the Probability of Survival for each group of mice over a period of 210 days.

Structure (SMILES): COc1cc2ncnc(Nc3ccc(O)cc3)c2cc1OC [4-(4′-hydroxyphenyl)-amino-6,7-dimethoxyquinazoline]
- Probability Of Survival (age 90 days): 100 ± 0
- Probability Of Survival (age 120 days): 94 ± 5
- Probability Of Survival (age 150 days): 81 ± 10
- Probability Of Survival (age 180 days): 68 ± 12
- Probability Of Survival (age 210 days): 68 ± 12
- mice still alive (by thirty weeks of age, mice fed compound (17% of the control mice)): 68%
